# Test results as given in patent US11905231B1, “Solid forms, salts and polymorphs of anti-fibrotic compounds” (Certa Therapeutics Pty Ltd, priority 2023, dated 2024).
# Like-named read-outs stand apart in the source and are kept apart here.
# Tests used:
# [1] = Thermogravimetric Analysis (TGA) weight loss; type: physicochemical; conditions: for Total weight loss by TGA: from r.t. to 350° C. (or to decomposition if lower); for Weight loss (TGA): when heated from about 25° C. to about 120° C.
# [2] = Oral pharmacokinetic study in Sprague-Dawley rats; conditions: rat; for F (fraction absorbed, bioavailability): based on AUCInf
# Method: Bioavailability is determined by the equation AUC=F·D/CLT, wherein AUC is the area under the plot of plasma concentration, F is the absolute bioavailability, D is the dose, and CLT is the total clearance.
# The rats received a single oral dose of 20 mg/kg body weight (b.w.). The doses were prepared as a 2.0 mg/mL suspension in a vehicle of 20 mM Na2HPO4 buffer containing 5% (v/v) DMSO, 0.4% (v/v) 1M NaOH and 0.4% (v/v) Tween 80 and a dose volume of 10 mL/kg b.w.
# Pharmacokinetic analysis was performed on the average plasma concentration for each time point.
# physchem = conditions: 37 °C, thermodynamic from solid
# Method: The term “FaSSIF media” refers to Fasted State Simulated Intestinal Fluid media prepared using FaSSIF powder and buffer concentrate obtained from the commercial source Biorelevant (London, UK, biorelevant.com). The FaSSIF powder contains sodium taurocholate, lecithin, sodium chloride, monobasic sodium phosphate and sodium hydroxide. The FaSSIF media is prepared as described at https://biorelevant.com/learning_center/what-is-fassif/. Briefly the pH6.5 buffer containing 0.42 g of NaOH, 3.95 g of NaH2PO4·H2O and 6.19 g of NaCl was dissolved in 0.9 L of purified water and the pH of the solution was adjusted to 6.5 using sodium hydroxide 1N or hydrochloric acid 1N and made up to volume (1 L) with purified water at room temperature. Dissolve 2.24 g of the FaSSIF powder in 0.5 L of the pH6.5 buffer, stirring until the powder is completely dissolved, and then make up to volume (1 L) with buffer at room temperature.
# The samples were stirred using a magnetic stirrer at 37° C. […] The samples were filtered via centrifugation (12,000 rpm, 5 min). The supernatant was diluted (2×) with HPLC grade solvent and analyzed by HPLC.
# HPLC gradient was as follows:
# The pH 1.2, pH 4.5, and pH 6.8 media were prepared as standard aqueous buffered solutions following USP <39>.
# As used herein, the term “FaSSIF media” means Fasted Stated Simulated Intestinal Fluid media prepared according to the method known in the art.
# [3] = Dynamic Vapor Sorption (DVS) hygroscopicity; conditions: at 80% RH, 25° C., measured during 0% RH to 95% RH increase
# Text: The change in water content is recited as a % change in mass of the starting sample and all such water sorption (DVS) values recited herein will be understood to explicitly include numerical values within a +/−0.2% variance.
# The humidity is held constant at 30% RH until the mass change of the sample reaches equilibrium, as determined by the rate of change of weight being 0.01%/minute or less. The humidity is then changed to the next step value and the consequent mass change measured, and so on.
# The hygroscopicity values recited herein refer to total water gain since the start of the experiment only and so may not necessarily be equivalent to the actual total water content of the sample.
# [4] = single oral dose 20 mg/kg, 0.5 h post dose
# [5] = single oral dose 20 mg/kg, 1 h post dose
# [6] = single oral dose 20 mg/kg, 2 h post dose
# [7] = single oral dose 20 mg/kg, 4 h post dose
# [8] = single oral dose 20 mg/kg, 8 h post dose
# [9] = single oral dose 20 mg/kg, 24 h post dose
# [10] = single oral dose 20 mg/kg, plasma
# [11] = single oral dose 20 mg/kg, plasma, mean
# [12] = single oral dose 20 mg/kg, plasma, extrapolated area under the curve
# [13] = FaSSIF (pH 7.5), pH 7.5, fassif
# [14] = FeSSIF (pH 7.8), pH 7.8, fessif
# [15] = pH 1.2 aqueous buffer, pH 1.2, simulated gastric fluid
# [16] = Sprague-Dawley, in vivo, po, 20 mg/kg
compound,measurement,setting,value
C#CCOc1ccc(/C=C/C(=O)Nc2ccccc2C(=O)O)cc1OC.N [Ammonium salt],Weight loss by TGA,[1]; from 0° C. to 100° C.,7.07% from 0 °C to
same,Weight loss by TGA,[1]; from 100° C. to 170° C.,4.48% from 100 °C to
same,Weight loss by TGA,[1]; from r.t. to 120° C.,8.94% from r.t. to
same,Total weight loss by TGA,[1],11.55% total weight
same,Maximum plasma concentration (Cmax) compared to the other tested compounds,[2]; single oral dose 20 mg/kg,highest maximum plasma concentration
same,Mean concentration (plasma),[2]; [4],32700 ng/mL
same,Mean concentration (plasma),[2]; [5],44033 ng/mL
same,Mean concentration (plasma),[2]; [6],35033 ng/mL
same,Mean concentration (plasma),[2]; [7],20833 ng/mL
same,Mean concentration (plasma),[2]; [8],14400 ng/mL
same,Mean concentration (plasma),[2]; [9],575 ng/mL
same,AUCExtr,[2]; [10],0.932%
same,AUClast,[2]; [11],313.832 µg·h/mL
same,Cmax,[2]; [11],44033 ng/mL
same,t1/2,[2]; [11],3.62 h
same,tmax,[2]; [11],1.00 h
same,AUCInf,[2]; [12],317.034 µg·h/mL
same,"F (fraction absorbed, bioavailability)",[2]; single oral dose 20 mg/kg,64%
C#CCOc1ccc(/C=C/C(=O)Nc2ccccc2C(=O)O)cc1OC [Free form],Weight loss by TGA,[1]; from r.t. to 120° C.,1.83% from r.t. to
same,Total weight loss by TGA,[1],1.83% total weight
same,solubility at 1 h,physchem; [13],1340 µg/mL
same,solubility at 24 h,physchem; [13],1500 µg/mL
same,solubility at 1 h,"physchem; FaSSIF, pH 6.5, fassif",312 µg/mL
same,solubility at 24 h,"physchem; FaSSIF, pH 6.5, fassif",103 µg/mL
same,solubility at 1 h,physchem; [14],806 µg/mL
same,solubility at 24 h,physchem; [14],400 µg/mL
same,solubility at 1 h,"physchem; FeSSIF, pH 5, fessif",39 µg/mL
same,solubility at 24 h,"physchem; FeSSIF, pH 5, fessif",18 µg/mL
same,solubility at 1 h,physchem; [15],10 µg/mL
same,solubility at 24 h,physchem; [15],4 µg/mL
same,solubility at 1 h,physchem; pH 4.5 aqueous buffer,35 µg/mL
same,solubility at 24 h,physchem; pH 4.5 aqueous buffer,6 µg/mL
same,solubility at 1 h,physchem; pH 6.8 aqueous buffer,394 µg/mL
same,solubility at 24 h,physchem; pH 6.8 aqueous buffer,51 µg/mL
same,AUCExtr,[2]; [16],2.10%
same,AUCInf,[2]; [16],170.145 µg·h/mL
same,AUClast,[2]; [16],166.522 µg·h/mL
same,bioavailability,[2]; [16],35%
same,half-life,[2]; [16],4.23 h
same,tmax,[2]; [16],3.67 h
same,Mean concentration (plasma),"[2]; Sprague-Dawley, in vivo, po, 20 mg/kg, 0.5 h",9947 ng/mL
same,Mean concentration (plasma),"[2]; Sprague-Dawley, in vivo, po, 20 mg/kg, 1 h",16427 ng/mL
same,Mean concentration (plasma),"[2]; Sprague-Dawley, in vivo, po, 20 mg/kg, 2 h",13217 ng/mL
same,Mean concentration (plasma),"[2]; Sprague-Dawley, in vivo, po, 20 mg/kg, 4 h",11693 ng/mL
same,Mean concentration (plasma),"[2]; Sprague-Dawley, in vivo, po, 20 mg/kg, 8 h",8990 ng/mL
same,Mean concentration (plasma),"[2]; Sprague-Dawley, in vivo, po, 20 mg/kg, 24 h",586 ng/mL
C#CCOc1ccc(/C=C/C(=O)Nc2ccccc2C(=O)[O-])cc1OC.[K+] [Potassium salt],Weight loss by TGA,[1]; from 25° C. to 57° C.,2.02% from 25 °C to
same,Weight loss by TGA,[1]; from 57° C. to 140° C.,4.40% from 57 °C to
same,Weight loss by TGA,[1]; from r.t. to 120° C.,5.34% from r.t. to
same,Total weight loss by TGA,[1],6.42% total weight
same,Mean concentration (plasma),[2]; [4],24600 ng/mL
same,Mean concentration (plasma),[2]; [5],34467 ng/mL
same,Mean concentration (plasma),[2]; [6],27200 ng/mL
same,Mean concentration (plasma),[2]; [7],17000 ng/mL
same,Mean concentration (plasma),[2]; [8],10850 ng/mL
same,Mean concentration (plasma),[2]; [9],687 ng/mL
same,AUCExtr,[2]; [10],1.68%
same,AUClast,[2]; [11],244.45 µg·h/mL
same,Cmax,[2]; [11],34733 ng/mL
same,t1/2,[2]; [11],4.21 h
same,tmax,[2]; [11],1.33 h
same,AUCInf,[2]; [12],248.674 µg·h/mL
same,"F (fraction absorbed, bioavailability)",[2]; single oral dose 20 mg/kg,51%
same,Hygroscopicity by DVS,[3],6.05%
same,1 h Solubility,"FaSSIF (pH 7.5), 37° C., 1 h",>5140 µg/mL
same,24 h Solubility,"FaSSIF (pH 7.5), 37° C., 24 h",>5140 µg/mL
same,1 h Solubility,"FaSSIF, 37° C., 1 h",218 µg/mL
same,24 h Solubility,"FaSSIF, 37° C., 24 h",211 µg/mL
same,1 h Solubility,"FeSSIF (pH 7.8), 37° C., 1 h",>5140 µg/mL
same,24 h Solubility,"FeSSIF (pH 7.8), 37° C., 24 h",>5140 µg/mL
same,1 h Solubility,"FeSSIF, 37° C., 1 h",23 µg/mL
same,24 h Solubility,"FeSSIF, 37° C., 24 h",25 µg/mL
same,1 h Solubility,"pH 1.2 medium, 37° C., 1 h",18 µg/mL
same,24 h Solubility,"pH 1.2 medium, 37° C., 24 h",7 µg/mL
same,1 h Solubility,"pH 4.5 medium, 37° C., 1 h",30 µg/mL
same,24 h Solubility,"pH 4.5 medium, 37° C., 24 h",6 µg/mL
same,1 h Solubility,"pH 6.8 medium, 37° C., 1 h",111 µg/mL
same,24 h Solubility,"pH 6.8 medium, 37° C., 24 h",78 µg/mL
C#CCOc1ccc(/C=C/C(=O)Nc2ccccc2C(=O)O)cc1OC.NC(CO)(CO)CO [Tris salt],Weight loss by TGA,[1]; from 0° C. to 120° C.,0.65% from 0 °C to
same,Weight loss by TGA,[1]; from 120° C. to 150° C.,0.20% from 120 °C to
same,Weight loss by TGA,[1]; from r.t. to 120° C.,0.65% from r.t. to
same,Total weight loss by TGA,[1],0.85% total weight
same,Weight loss (TGA),[1],0.65%
same,Mean concentration (plasma),[2]; [4],21300 ng/mL
same,Mean concentration (plasma),[2]; [5],36833 ng/mL
same,Mean concentration (plasma),[2]; [6],31067 ng/mL
same,Mean concentration (plasma),[2]; [7],14467 ng/mL
same,Mean concentration (plasma),[2]; [8],11317 ng/mL
same,Mean concentration (plasma),[2]; [9],650 ng/mL
same,AUCExtr,[2]; [10],1.49%
same,AUClast,[2]; [11],246.642 µg·h/mL
same,Cmax,[2]; [11],37367 ng/mL
same,t1/2,[2]; [11],4.02 h
same,tmax,[2]; [11],1.33 h
same,AUCInf,[2]; [12],250.596 µg·h/mL
same,"F (fraction absorbed, bioavailability)",[2]; single oral dose 20 mg/kg,51%
same,Hygroscopicity by DVS,[3],1.61%
same,Hygroscopicity by DVS,[3]; listed as tris(hydroxymethyl)aminomethane (Tris),1.61%
same,1 h Solubility,pH 1.2,1 µg/mL
same,24 h Solubility,pH 1.2,4 µg/mL
same,1 h Solubility,pH 4.5,<1 µg/mL
same,24 h Solubility,pH 4.5,2 µg/mL
same,1 h Solubility,pH 6.8,88 µg/mL
same,24 h Solubility,pH 6.8,67 µg/mL
same,1 h Solubility,pH 7.5,>5030 µg/mL
same,24 h Solubility,pH 7.5,4641 µg/mL
same,1 h Solubility,pH 7.8,>5100 µg/mL
same,24 h Solubility,pH 7.8,4212 µg/mL
C#CCOc1ccc(/C=C/C(=O)Nc2ccccc2C(=O)O)cc1OC.CC(C)(C)N [tert-Butylamine (TBA) salt],Weight loss by TGA,[1]; from 25° C. to 120° C.,0.94% from 25 °C to
same,Weight loss by TGA,[1]; from 120° C. to 190° C.,6.91% from 120 °C to
same,Weight loss by TGA,[1]; from r.t. to 120° C.,0.94% from r.t. to
same,Total weight loss by TGA,[1],7.85% total weight
same,Weight loss (TGA),[1],0.94%
same,Weight loss (TGA),[1]; listed as tert-butylamine salt,about 0.94%
same,Mean concentration (plasma),[2]; [4],18080 ng/mL
same,Mean concentration (plasma),[2]; [5],26967 ng/mL
same,Mean concentration (plasma),[2]; [6],29167 ng/mL
same,Mean concentration (plasma),[2]; [7],17133 ng/mL
same,Mean concentration (plasma),[2]; [8],15433 ng/mL
same,Mean concentration (plasma),[2]; [9],918 ng/mL
same,AUCExtr,[2]; [10],1.83%
same,AUClast,[2]; [11],287.306 µg·h/mL
same,Cmax,[2]; [11],32000 ng/mL
same,t1/2,[2]; [11],4.18 h
same,tmax,[2]; [11],1.67 h
same,AUCInf,[2]; [12],292.817 µg·h/mL
same,"F (fraction absorbed, bioavailability)",[2]; single oral dose 20 mg/kg,59%
same,Hygroscopicity by DVS,[3],1.07%
same,Hygroscopicity by DVS,[3]; listed as tert-butylamine (TBA),1.07%
same,Hygroscopicity by DVS,[3]; listed as tert-butylamine salt,about 1.07%
